Reference: patent US20210205292A1, “INHIBITORS OF CREB-CBP INTERACTION FOR TREATMENT OF LEUKEMIA” (The Board of Trustees of the Leland Stanford Junior …, priority 2016, published 2021)

How the values were obtained:
Type in all cases: cell-based
[1] = tested on: CREB target genes in KG-1 and HL-60 cells; assay: RT-PCR of target genes in KG-1 and HL-60 cells
Protocol: Total RNA was isolated using the Aurum RNA Isolation Mini Kit, and the iScript cDNA Synthesis Kit was used to prepare samples for qPCR (Bio-Rad). PCR was performed on the CFX384 Real-Time System (Bio-Rad) and results were analyzed using the Livak method. For analysis of RNA-seq data as target genes of known transcription factors, a curated list of all human target genes was extracted from the TRANSFAC Pro database.
To assess for potential ‘off-target’ effects of Compound A, the RNA-Seq gene expression profiles of other transcription factors that bind CBP, including Rel, RelA, RelB, Foxo3, Foxo1 and Myb, were analyzed. […] PLoS One. 2011; 6(12):e28712) (FIG. 9, panel E).

AML cell lines = assay: Viable cell count of AML cell lines (Vi-CELL); details: four AML cell lines, 48 hours; range across lines, units printed with the values; read-out: IC50, 50% reduced viable cell count compared to DMSO-treated cells
Protocol: AML cell lines were purchased from ATCC and maintained with IMDM (Gibco) supplemented with 10% FBS (Fisher Scientific) and 1% PSG (Gibco). Cells were plated at a density of 2-4×10^5 cells/ml, and treated with various doses of Compound A in 0.1% DMSO or 0.1% DMSO alone. Cell counts and viability were determined using the Vi-CELL XR Cell Viability Analyzer (Beckman Coulter). HL-60 and KG-1 cells overexpressing CREB or CBP were generated using lentiviral gene delivery with subsequent puromycin selection and FACs sorting for GFP. CREB knockdown was achieved by infecting cells with a lentivirus expressing the shRNA sequence 5′-[…]-3′ (SEQ ID NO:). For chemotherapy combination experiments, combination index values were calculated using median effects analysis on Calcusyn software. Human patient bone marrow samples were cultured in DMEM plus 20% FBS and 1×PSG, supplemented with recombinant GM-CSF (20 ng/ml), G-CSF (20 ng/ml), SCF (50 ng/ml), IL-3 (20 ng/ml), and IL-6 (10 ng/ml). Cells were plated at a concentration of 1×10^5 cells/ml in a 12-well plate. Vehicle (0.1% DMSO) or Compound A (2 μM) was added for up to 72 hours. All samples contained >85% AML blasts and were not sorted prior to performing experiments. […] Single cell suspensions of bone marrow culture were subsequently analyzed on a D×P10 flow cytometer (Cytek). […]

[2] = tested on: Bcl-2, Mcl-1 expression in KG-1 cells; assay: Western blot of anti-apoptotic proteins in KG-1 cells
Protocol: Cells were lysed in RIPA buffer (Sigma), and the protein concentrations were determined by BCA assay (Thermo Scientific Pierce). Lysates were solubilized in 6×SDS PAGE buffer and […] of protein was loaded into 6-15% SDS PAGE gels, pheresed, and then transferred onto […] PVDF membrane (Millipore). Primary antibodies were applied at a dilution of 1:1000. Anti-Bcl-2, -Bax, -Mcl-1, -Bcl-XL, -Cyclin A and -Cyclin D1 antibodies were purchased from Cell Signaling Technologies. Anti-total acetylated histone and -ac-H3K27 were purchased from Santa Cruz Biotechnologies. Anti-actin and -CREB antibodies were purchased from upstate. Secondary antibodies were used at a 1:2500 dilution and purchased from Thermo Scientific/Pierce. WesternBright ECL was used for image acquisition on Image Lab software (Bio-Rad).
The balance between pro- and anti-apoptotic protein expression contributes to cell fate decisions. CREB regulates the expression of several anti-apoptotic proteins, including Bcl-2, Bcl-XL and Mcl-1. Bcl-2 expression in particular is known to mediate resistance to chemotherapy and influence clinical outcome in a number of cancer types, including AML. The ability of Compound A to cause apoptosis by disrupting the CREB-driven expression of these anti-apoptotic proteins was examined. In HL-60 cells treated with Compound A, apoptosis is induced in a dose- and time-dependent manner. […]

Question: Which “Myb-driven gene expression (SP3, FPR1, PRODH, SLC34A2)” value [1] does the source give for N#Cc1ccc(NC(=O)c2cc3ccccc3cc2O)cc1 [Compound A, N-(4-cyanophenyl)-3-hydroxy-2-naphthamide] here?
Answer: No changes in gene expression were observed

Question: And the “CREB target gene expression (qPCR)” value ([1]; conditions as for RNA-Seq)?
Answer: consistently reduced CREB target gene expression

Question: And the IC50 (AML cell lines)?
Answer: 0.87 to 2.3 µM

Question: What about the Bcl-2 expression [2] of the same molecule?
Answer: decreased Bcl-2 expression

Question: And the Mcl-1 expression [2]?
Answer: pronounced decrease in Mcl-1
